Measurements taken from ChEMBL document CHEMBL4052647, “Synthesis and pharmacological evaluation of novel chromone derivatives as balanced multifunctional agents against Alzheimer's disease” (Bioorg Med Chem, 2017).
The source made the active and inactive calls. The rule behind the calls is not given here.

Key:
[1] = Antioxidant activity assessed as trolox equivalent of […]-induced radical scavenging activity at 1 to 10 uM preincubated for 15 mins followed by AAPH addition measured every minute for 120 mins by ORAC fluorescein assay; assay type: functional
[2] = target: T1, Amine oxidase [flavin-containing] A (Homo sapiens, UniProt P21397); test: Inhibition of recombinant human MAO-A expressed in baculovirus infected BTI insect cells using p-tyramine as substrate pretreated for 15 mins followed by substrate addition after 20 mins by Amplex red reagent based fluorimetric method
T1 sequence (P21397 whole entry): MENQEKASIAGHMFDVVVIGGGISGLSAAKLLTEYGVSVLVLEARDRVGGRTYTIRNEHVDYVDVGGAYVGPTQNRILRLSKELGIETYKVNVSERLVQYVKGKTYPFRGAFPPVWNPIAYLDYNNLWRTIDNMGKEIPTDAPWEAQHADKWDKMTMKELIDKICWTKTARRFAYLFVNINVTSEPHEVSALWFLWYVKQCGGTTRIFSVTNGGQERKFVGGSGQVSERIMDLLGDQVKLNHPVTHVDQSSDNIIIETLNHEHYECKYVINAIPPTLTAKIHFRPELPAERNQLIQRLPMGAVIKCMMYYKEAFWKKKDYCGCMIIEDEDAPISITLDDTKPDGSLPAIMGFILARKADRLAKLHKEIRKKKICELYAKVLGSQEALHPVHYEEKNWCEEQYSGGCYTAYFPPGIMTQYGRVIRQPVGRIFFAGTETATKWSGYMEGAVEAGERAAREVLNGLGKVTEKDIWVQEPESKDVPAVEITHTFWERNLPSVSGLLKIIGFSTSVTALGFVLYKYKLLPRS

[3] = organism: Homo sapiens; test: Selectivity index, ratio of IC50 for recombinant human MAO-A expressed in baculovirus infected BTI insect cells to IC50 for recombinant human MAO-B expressed in baculovirus infected BTI insect cells
[4] = test system: PC-12; test: Cytotoxicity against rat PC12 cells at 20 uM after 24 hrs by MTT assay; assay type: cell-based; conditions: pc-12, 24 h
[5] = target: Amyloid-beta precursor protein (Homo sapiens) (UniProt P05067); test: Inhibition of HFIP-pretreated amyloid beta (1 to 42) (unknown origin) self-induced aggregation at 20 uM after 46 to 48 hrs by thioflavin-T fluorescence assay relative to control
Chain of Amyloid-beta precursor protein (Homo sapiens) (P05067 whole entry): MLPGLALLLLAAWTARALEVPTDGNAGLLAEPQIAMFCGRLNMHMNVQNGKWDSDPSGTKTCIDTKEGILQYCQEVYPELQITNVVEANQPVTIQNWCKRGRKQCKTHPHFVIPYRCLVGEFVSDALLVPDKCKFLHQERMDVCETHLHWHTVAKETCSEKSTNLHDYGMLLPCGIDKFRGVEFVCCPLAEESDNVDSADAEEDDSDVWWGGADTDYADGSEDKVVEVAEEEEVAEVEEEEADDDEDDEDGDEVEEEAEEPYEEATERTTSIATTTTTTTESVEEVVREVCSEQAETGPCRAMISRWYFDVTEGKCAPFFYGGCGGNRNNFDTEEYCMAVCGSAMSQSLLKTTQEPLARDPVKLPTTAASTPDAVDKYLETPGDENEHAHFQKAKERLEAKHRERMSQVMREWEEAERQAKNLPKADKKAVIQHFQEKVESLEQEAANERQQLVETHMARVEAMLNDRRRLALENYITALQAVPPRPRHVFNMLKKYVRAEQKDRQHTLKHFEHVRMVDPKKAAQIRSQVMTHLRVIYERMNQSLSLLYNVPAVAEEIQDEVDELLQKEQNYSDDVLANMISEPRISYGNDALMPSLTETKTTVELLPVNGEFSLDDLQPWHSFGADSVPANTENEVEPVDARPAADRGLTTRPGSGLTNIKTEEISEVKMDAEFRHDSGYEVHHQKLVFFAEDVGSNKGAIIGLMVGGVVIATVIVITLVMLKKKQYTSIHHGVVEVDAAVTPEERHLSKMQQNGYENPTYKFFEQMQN

[6] = target: T2, Amine oxidase [flavin-containing] B (Homo sapiens, UniProt P27338); test: biochemical; assay type: cell-based
T2 sequence (P27338 whole entry): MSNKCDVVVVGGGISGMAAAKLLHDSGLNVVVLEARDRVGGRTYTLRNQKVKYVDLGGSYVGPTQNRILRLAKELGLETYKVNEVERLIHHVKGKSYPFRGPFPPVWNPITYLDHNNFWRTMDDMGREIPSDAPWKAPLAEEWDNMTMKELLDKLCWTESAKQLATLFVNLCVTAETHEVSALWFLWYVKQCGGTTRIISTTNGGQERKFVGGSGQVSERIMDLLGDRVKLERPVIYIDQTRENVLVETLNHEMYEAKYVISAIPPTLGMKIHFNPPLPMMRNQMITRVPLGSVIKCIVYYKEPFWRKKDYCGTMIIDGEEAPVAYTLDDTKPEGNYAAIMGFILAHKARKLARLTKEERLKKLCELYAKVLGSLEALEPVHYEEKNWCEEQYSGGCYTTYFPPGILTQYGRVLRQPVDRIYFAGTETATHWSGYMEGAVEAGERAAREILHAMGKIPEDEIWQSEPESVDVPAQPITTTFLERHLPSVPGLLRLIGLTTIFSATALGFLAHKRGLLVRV
Description: Inhibition of recombinant human MAO-B expressed in baculovirus infected BTI insect cells using p-tyramine as substrate pretreated for 15 mins followed by substrate addition after 20 mins by Amplex red reagent based fluorimetric method

[7] = test system: PC-12; test: Neuroprotective activity against H2O2-induced cell death in rat PC12 cells assessed as increase in cell viability at 10 uM pretreated for 24 hrs followed by H2O2 induction after 24 hrs by MTT assay; assay type: functional, cell-based
[8] = physchem; conditions: PAMPA
[9] = physchem; conditions: PAMPA, pH 7.4
[10] = Metal chelating activity assessed as inhibition of Cu2+-induced amyloid beta (1 to 42 residues) aggregation by measuring reduction in amyloid fibrils at 50 uM […] by uranyl acetate staining based transmission electron microscopic analysis
[11] = Metal chelating activity assessed as inhibition of Cu2+-induced amyloid beta (1 to 42 residues) aggregation at 50 uM after 24 hrs by thioflavin-T fluorescence assay (reference value: 142%)

Row | SMILES | Activity [1] [equiv] | IC50 [2] [µM] | Ratio IC50 [3] | Activity [4] | inhibition [5] [%] | IC50 [6] [µM] | Activity [7] | Papp at 16 h [8] [×10⁻⁶ cm/s] | Papp at 18 h, 25 ug/ml [9] [×10⁻⁶ cm/s] | inhibition [10] | inhibition [11] [%]
1 | COc1ccc2[nH]cc(CCNC(C)=O)c2c1 | 2.05 |  |  |  |  |  |  |  |  |  | 
2 | Cc1ccc(O)c(/N=C/c2coc3ccccc3c2=O)c1 | 2.43 | 3.34 | 2.96 | Non-Toxic | 58.1 | 1.13 |  |  |  |  | 
3 | Cc1c(C)c2c(c(C)c1O)CCC(C)(C(=O)O)O2 (centres undefined) |  |  |  |  |  |  | Active |  |  |  | 
4 | Cc1ccc(/N=C/c2coc3ccccc3c2=O)c(O)c1 | 2.26 | 6.26 | 0.44 | Non-Toxic | 75.2 | 14.3 |  |  |  |  | 
5 | O=c1c(/C=N/c2cc3ccccc3cc2O)coc2ccccc12 | 1.82 | 3.35 | 0.52 | Non-Toxic | 66.5 | 6.42 |  |  |  |  | 
6 | Cc1ccc2occ(/C=N/c3ccc(Cl)cc3O)c(=O)c2c1 | 3.41 | 2.62 | 2.86 | Non-Toxic | 48.3 | 0.915 | Active | 5.57 |  |  | 
7 | O=c1c(/C=N/c2ncccc2O)coc2ccc(Br)cc12 | 2.97 | 9.81 | 3.31 | Non-Toxic | 69.8 | 2.92 |  |  |  |  | 
8 | O=c1c(/C=N/c2cc(F)ccc2O)coc2ccccc12 | 2.6 | 4.65 | 2.61 | Non-Toxic | 64.5 | 1.78 |  |  |  |  | 
9 | Cc1ccc2occ(/C=N/c3cc(F)ccc3O)c(=O)c2c1 | 2.92 | 3.83 | 1.64 | Non-Toxic | 87.3 | 2.34 |  |  |  |  | 
10 | O=c1c(/C=N/c2ccc(F)cc2O)coc2ccc(Br)cc12 | 2.73 | 2.72 | 3.56 | Non-Toxic | 71.5 | 0.764 |  |  |  |  | 
11 | O=c1c(/C=N/c2ccc(Cl)cc2O)coc2ccccc12 | 2.36 | 1.42 | 0.8 | Non-Toxic | 51.5 | 1.78 |  |  |  |  | 
12 | O=c1c(/C=N/c2cc(Cl)ccc2O)coc2ccc(Br)cc12 | 2.16 | 4.55 | 1.39 | Non-Toxic | 72.1 | 3.28 |  |  |  |  | 
13 | NCCc1ccc(O)c(O)c1 [DOPAMINE] |  |  |  |  |  |  |  | 1.32 | 0.8 |  | 
14 | O=c1c(/C=N/c2cc(Cl)ccc2O)coc2ccccc12 | 2.24 | 1.94 | 0.11 | Non-Toxic | 68.1 | 19.2 |  |  |  |  | 
15 | O=c1c(/C=N/c2cccc(Cl)c2O)coc2ccccc12 | 2.01 | 1.65 | 0.11 | Non-Toxic | 79.5 | 14.5 |  |  |  |  | 
16 | CCn1cc(C(=O)O)c(=O)c2cc(F)c(N3CCNC(C)C3)c(F)c21 (centres undefined) [LOMEFLOXACIN] |  |  |  |  |  |  |  | 3.1 | 1.9 |  | 
17 | Oc1ccc(/C=C/c2cc(O)cc(O)c2)cc1 |  |  |  |  | 57.2 |  |  |  |  | Active | 63.3
18 | Cc1ccc2occ(/C=N/c3cc([N+](=O)[O-])ccc3O)c(=O)c2c1 | 2.73 | 7.27 | 4.43 | Non-Toxic | 71.2 | 1.64 |  |  |  |  | 
19 | Oc1c(I)cc(Cl)c2cccnc12 |  |  |  |  |  |  |  |  |  | Active | 47.7
20 | O=c1c(/C=N/c2ccc(Cl)cc2O)coc2ccc(Br)cc12 | 1.92 | 3.18 | 2.47 | Non-Toxic | 87.6 | 1.29 |  |  |  |  | 
21 | O=c1c(/C=N/c2ccccc2O)coc2ccccc12 | 2.39 | 6.81 | 0.22 | Non-Toxic | 65.2 | 31.5 |  |  |  |  | 
22 | Cc1ccc2occ(/C=N/c3ncccc3O)c(=O)c2c1 | 2.03 | 7.35 | 3.62 | Non-Toxic | 63.4 | 2.03 |  |  |  |  | 
23 | O=c1c(/C=N/c2cccc(Cl)c2O)coc2ccc(Br)cc12 | 2.6 | 4.47 | 1.97 | Non-Toxic | 68.1 | 2.27 |  | 4.81 |  |  | 
24 | Cc1ccc2occ(/C=N/c3cc(Cl)ccc3O)c(=O)c2c1 | 2.61 | 2.15 | 3.39 | Non-Toxic | 71.9 | 0.634 |  |  |  |  | 
25 | Cc1ccc(/N=C/c2coc3ccc(C)cc3c2=O)c(O)c1 | 2.48 | 20.8 | 0.97 | Non-Toxic | 45.6 | 21.4 |  |  |  |  | 
26 | O=c1c(/C=N/c2cc(F)ccc2O)coc2ccc(Br)cc12 | 2.68 | 3.09 | 3.75 | Non-Toxic | 79.1 | 0.825 |  |  |  |  | 
27 | O=c1c(/C=N/c2ncccc2O)coc2ccccc12 | 2.23 | 7.41 |  | Non-Toxic | 70.8 | 2.23 |  |  |  |  | 
